The results in this text go back to patent publication US20250127896A1, “CHIMERIC TIM4 RECEPTORS AND USES THEREOF” (CERO THERAPEUTICS HOLDINGS, INC., priority 2021, published 2025).

For assay [1], the system named is E7 TCR T cells. The experiment in a line: APC-like function: E7 peptide-pulsed CER T cells co-cultured with E7 TCR T cells (activation markers, CT Violet proliferation). In kind it is cell-based. How it is done: FIG. 1A: a schematic of pCTX247 (also referred to herein as CER247) and pCTX1107 (also referred to herein as CER1107 or CER1236) chimeric Tim4 receptors and pCTX1107 T cells pulsed with E7 peptides and co-cultured with E7-specific T cells to evaluate their antigen presentation capacity. FIG. 1B: E7-specific proliferation responses were measured by CT Violet dye dilution after 6 days in the presence of autologous CER-T (TLR containing or non-containing CERs) pulsed with E7 peptides. […] All data collected by FACS. Cell tracing show E7 TCR-T cells using an anti-mouse TCRb. E7 TCR-T cells were labeled with CT Violet at the time of co-culture. FIG. 1D: Percentage of proliferated E7 TCR cells in culture among live CD3+ cells determined by flow cytometry based on staining of cell trace violet low E7 TCRb+ cells.
FIG. 2: T cells containing chimeric Tim4 receptors with a TLR intracellular signaling domain added to the CD3ζ signaling domain (and optionally a CD28 signaling domain) are strong stimulators of autologous E7-specific T cell responses. CER-T cells were pulsed with E7 peptide and tested for their capacity to trigger an autologous E7-specific T cell response. CD25, a T cell activation marker, was evaluated on E7 TCR-T cells, 24 hours after CER-T cells were pulsed with E7 peptides. […]

In assay [2] the test system is NSCLC H1975 cells. The experiment in a line: Cytokine production by CER1236 T cells co-cultured with H1975 cells and osimertinib (Ella). In kind it is cell-based. The conditions noted are these: 96 h, E:T 1:4, vs vehicle and untransduced T cells. How it is done:
FIG. 40: Graphs showing cytokine production by CER1236 T cells co-cultured with NSCLC H1975 cells with 100 nM osimertinib or vehicle (left to right: granzyme B, TNFα, IL-6, and IFNγ).
Cytokine production was also measured in CER1236 T cells co-cultured with H1975 NSCLC cells pre-treated with osimertinib or vehicle. Ten-thousand NSCLC H1975 cells were cultured for 24 h with 100 nM Osimertinib or vehicle (DMSO) and then co-cultured with CER T cells for 96 h at an E:T of 1:4 in the presence or absence of 4.88 nM Osimertinib or vehicle. Effector:Target ratio was 1:4, and H1975 cells were plated at 10,000 cells/well. Cytokine production was determined by Ella assay.

For assay [3], the system named is NSCLC H1975 cells. The experiment in a line: T cell expansion in H1975 co-culture with osimertinib (quantitative flow cytometry). In kind it is cell-based. The procedure:
FIG. 41: Bar graphs showing fold expansion of total CD3+ T cells (untransduced+vehicle, untransduced+osimertinib, CER1236+vehicle, CER1236+osimertinib) determined by quantitative flow cytometry using quantitation beads over a time course (48 hrs, 96 hrs, 120 hrs, and 144 hrs).
FIG. 42: Flow cytometry plots measuring CD3+ cells (y-axis) and H1975 cell (x-axis) in co-culture experiments with H1975 cells pretreated with vehicle or osimertinib ([…], 19.53 nM) and untransduced T cells (top row) or CER1236 T cells (bottom row).
Proliferation of CER1236 T cells co-cultured with H1975 NSCLC cells pre-treated with osimertinib or vehicle was also measured. […] Total CD3+ T cells fold expansion was determined by quantitative flow cytometry using quantitation beads over a time course (48 hrs, 96 hrs, 120 hrs, and 144 hrs). Experiment was performed twice, once with 5,000 target H1975 cells and once with 10,000 target H1975 cells.
Background: In flow cytometry, cells or beads pass a laser one at a time.

The subject of assay [4] is Jeko1 TMEM30A−/− cells. The conditions noted are these: mantle cell lymphoma mouse model.
Procedure: Using an engineered TMEM30a phospholipid flippase knockout JeKo-1 lymphoma cell line with constitutive phosphatidylserine exposure (JeKo-1 PS^+), tumor fragment uptake, cytotoxicity, cytokine secretion (GrB, IFN-γ, and TNF-α), and APC-like activity were evaluated in vitro. JeKo-1 PS^+ cells were labeled with the pH-sensitive pHrodo™ dye to quantify the uptake of tumor cells. Chimeric Tim4 receptor-T cells were tested for antigen-display capacity by evaluating autologous HPV E7 TCR T cell activation and proliferation following Chimeric Tim4 receptor-T cell co-culture with JeKo PS+ cells and HPV-derived peptides. Finally, Chimeric Tim4 receptor T cell anti-tumor activity was examined in xenografted MCL models. Statistical analysis was performed using 2-way ANOVA.

As to “CER-1236: chimeric Tim4 receptor: Tim4 binding domain-CD28tm-CD28-CD3z-TLR2 TIR, SEQ ID NO:19; tested as transduced T cells”, in assay [1] (24 hrs following co-culture, controls 23.1%), the “E7 TCR-T cell surface activation markers CD25 and CD69 upregulated” value was 41.2%. Further, in assay [1] (by 6 days, controls 8%), the “percentage of dividing E7-TCR-T cells” value worked out at 44%. The “cytokine production (granzyme B, TNFα, IL-6, IFNγ), combination with osimertinib” value in assay [2] is given as “increased cytokine production”. In addition, the “CD3+ T cell proliferation and H1975 cell numbers, osimertinib-treated H1975” value in assay [3] (120 hours, 4:1 effector:target ratio, flow cytometry) is “CD3+ T cell proliferation was highest and H1975 cell numbers lowest”. In assay [3] (E:T 1:4, 48, 96, 120, 144 hrs), the “total CD3+ T cells fold expansion, combination with osimertinib” value is on record as “osimertinib drives CER1236 T cell proliferation”. Besides, the “anti-tumor effect / tumor burden” value in assay [4] is given as “showed anti-tumor effect”.
